# Patent publication US20060093553A1, “Cd26-based therapies for cancers and immune disease” (priority 2002, published 2006)
# How the values were obtained:
# [1] = system: CD80 expression on monocytes; assay: Surface expression on monocytes (flow cytometry); type: cell-based, Human
# Description: (§1) In studies assessing the expression of CD80, CD86, and HLA-DR on purified monocytes (0.5×10^6 monocytes/well), monocytes were preincubated with or without TT (0.5 μg/ml) for 16 h. Following incubation with sCD26 (0.5 μg/ml) for 24 h, FITC-conjugated CD80, CD86, and HLA-DR mAbs (10 μg/ml) were used with PE-conjugated anti-CD14 (10 μg/ml) to gate exclusively on the monocyte population. In experiments assessing the effect of M6P on cellular uptake of sCD26, purified monocytes (0.5×10^6 monocytes/well) were incubated with the appropriate concentration of M6P in the presence or absence of sCD26-OG for 24 h in standard medium. Cells were then washed twice in ice-cold PBS, followed by incubation for 2 min in acidic PBS (pH 3.0) to strip any sCD26-OG attached to the cell surface. Cells were washed in ice-cold PBS and were incubated with mouse Ig isotypes (1 μg/ml) to block nonspecific binding; this was followed by reaction with PE-conjugated anti-CD14 (10 μg/ml) to gate exclusively on monocyte population.
# (§2) Flow cytometric analysis of 10,000 viable cells was conducted on FACSCalibur (BD Biosciences, Mountain View, Calif.). Each experiment was repeated at least three times, and the results were provided in the form of a histogram of a representative experiment, or increased mean percent±SE fluorescent intensity compared with control or untreated cells.
# [2] = system: CD86 expression on monocytes; assay: Surface expression on monocytes (flow cytometry); type: cell-based, Human
# Description: as §1, §2
# [3] = system: HLA-DR expression on monocytes; assay: Surface expression on monocytes (flow cytometry); type: cell-based, Human
# Description: as §1, §2
# [4] = system: wtCD26 Jurkat transfectant; assay: Immunoblotting of etoposide-induced apoptosis markers after z-LEHD-fmk preincubation; type: cell-based, Human
# Description: SDS-PAGE and Immunoblotting. After incubation at 37° C. in culture media and etoposide or doxorubicin at the concentrations and duration indicated, cells were harvested from wells, washed with PBS, and lysed in lysis buffer consisting of 1% NP-40, 0.5% deotxycolate, 0.1% SDS, 1 mM phenyhmethylsulfonyl fluoride, 1 mM benzamidine, 10 μg/ml aprotinin, 50 μg/ml leupeptin, 10 μg/ml soybean trypsin inhibitor and 1 μg/ml pepstatin. After incubating on ice for 5 min, nuclei were removed by centrifugation and supernatants were collected as whole cell lysates. Sample buffer (4×) consisting of 20% glycerol, 4.6% SDS, 0.5 M Tris (pH 6.8), 4% β-mercaptoethanol, and 0.2% bromophenol blue was added to the appropriate aliquots of supernatants. After boiling, protein samples were submitted to SDS-PAGE analysis on an 8% gel under standard conditions using a mini-Protean II system (Bio-Rad). For immunoblotting, the proteins were transferred onto nitrocellulobse (Immobilon-P; Millipore). After overnight. blocking at 4° C. in blocking solution consisting of 0.1% Tween 20 and 5% BSA in Tris-buffered saline, membranes were blotted with the appropriate primary antibodies diluted in blocking solution for 1 hour at room temperature. Membranes were then washed with blocking solution, and appropriate secondary antibodies diluted in blocking solution were then applied for 1 hour at room temperature. Secondary antibodies were goat antimouse or goat antirabbit horseradish peroxidase conjugates (Dako). Membranes were then washed with blocking solution, and proteins were subsequently detected by chemiluininescence (Amersham Pharmacia Biotech).
# [5] = system: 340-4 mutant CD26-positive/DPPIV-positive Jurkat transfectant; assay: Cell cycle analysis (propidium iodide staining); type: cell-based, Human; details: 24 h, 340-4 transfectant
# [6] = system: S630A Jurkat transfectants; assay: MTT uptake (cell growth) assay; type: cell-based, Human
# Description: (§3) Cell growth assay was performed as described previously (Hansen et al., 1989). Cells were incubated in microplates in the presence of culture media alone, culture media and […] (50 μg/ml), culture media and doxorubicin at the indicated concentrations, or culture media, […]), and doxorubicin at the indicated concentrations, for a total volume of 100 μl (50,000 cells/well). After 48 h of incubation at 37° C., 25 μl of MTT was added to the wells at a final concentration of 1 mg/ml. The microplates were then incubated for 2 h at 37° C., followed by the addition of 100 μl of extraction buffer. After overnight incubation at 37° C., A570/nm measurements at 570 nm were performed, with the SE of the triplicate wells being less than 15%. MTT Assay. Cell growth assay was performed as described previously (Aytac et al., 2001). […] Following 36-48 h of incubation at 37° C., 25 ul of MET was added to the wells at a final concentration of 1 mg/ml. The microplates were then incubated for 2 h at 37° C., followed by the addition of 100 ul of extraction buffer. Following overnight incubation at 37° C., OD measurements at 570 nm were performed, with the standard errors of the mean of the triplicate wells being less than 15%. Cytotoxicity index was calculated as follows: [formula]
# [7] = system: wtCD26 Jurkat transfectants; assay: MTT uptake (cell growth) assay; type: cell-based, Human
# Description: as §3
# [8] = system: wild-type CD26-transfected Jurkat cell lines (wtCD26); assay: Cell cycle analysis (propidium iodide staining); details: 24 h; for % G0/G1 / % G2/M / % S: wtCD26 transfectant; for Percentage G0G1 / Percentage G2/M / Percentage S: WtCD26 transfectant
# [9] = system: S630A mutant CD26-positive/DPPIV-negative Jurkat transfectant; assay: Cell cycle analysis (propidium iodide staining); details: 24 h
# [10] = system: 340-4 Jurkat transfectants; assay: MTT uptake (cell growth) assay; type: cell-based, Human; details: 340-4 transfectants, similar to wtCD26; 48 h; FIG. 1
# [11] = system: nontransfected control (parental) Jurkat cells; assay: Cell cycle analysis (propidium iodide staining); details: 24 h; for % G0/G1 / % G2/M / % S: Parental Jurkat; for Percentage G0G1 / Percentage G2/M / Percentage S: Control Jurkat
# [12] = system: wtCD26 Jurkat transfectants; assay: Annexin V/PI apoptosis assay; type: cell-based, Human
# Description: (§4) Annexin/PI Assays. Exposure of phosphatidylserine residues was quantified by surface annexin V staining as previously described (Vermes et al., 1995; […] and Pollard, 1994; Martin et al., 1995)). Briefly, cells were washed in binding buffer (10 mM HEPES, pH 7.4, 2.5 mM CaCl2, 140 mM NaCl), resuspended in 100 μl and incubated with 0.5 μl/ml annexin V-fluoresencein isothiocyanate (FITC) and 2.5 μg/ml propiodium iodide (PI) for 15 minutes in the dark. Cells were then washed again and resuspended in 400 μl of binding buffer, then flow cytometric analysis (FACScan; Becton Dickinson) was performed. Ten thousand cells were acquired per sample using Cellquest software and data were analyzed with the Paint-a-gate software (Becton Dickinson).
# [13] = system: 340-4 Jurkat transfectants; assay: Annexin V/PI apoptosis assay; type: cell-based, Human
# Description: as §4
# M6P/IGF-IIR on monocytes = biological target: T1, M6P/IGF-IIR on monocytes (Homo sapiens, UniProt P11717); assay: Inhibition of sCD26 uptake into monocytes by M6P (FACS); type: cell-based; details: M6P 0, 0.1, 1.0, and 10 μM; concentration dependent; with or without TT; FIGS. 11A, 11B
# T1 construct: endogenous in cells; host or cells: purified peripheral blood monocytes
# Description: as §1
# [14] = 2 hours preincubation with z-LEHD-fmk, then 3 μM etoposide 48 hours, FIG. 22B
# [15] = AIM V serum-free media, Doxorubicin 0.10 uM
# [16] = AIM V serum-free media, Doxorubicin 0.25 uM
# [17] = Doxorubicin 0.01 μM, S63A transfectant
# [18] = Doxorubicin 0.05 μM, S630A transfectant
# [19] = AIM V serum-free media, Etoposide 0.25 uM
# [20] = AIM V serum-free media, Etoposide 0.50 uM
# [21] = Etoposide 0.10 uM, S630A transfectant
# [22] = Etoposide 0.25 uM, S630A transfectant
# T1 sequence (P11717 41-2491): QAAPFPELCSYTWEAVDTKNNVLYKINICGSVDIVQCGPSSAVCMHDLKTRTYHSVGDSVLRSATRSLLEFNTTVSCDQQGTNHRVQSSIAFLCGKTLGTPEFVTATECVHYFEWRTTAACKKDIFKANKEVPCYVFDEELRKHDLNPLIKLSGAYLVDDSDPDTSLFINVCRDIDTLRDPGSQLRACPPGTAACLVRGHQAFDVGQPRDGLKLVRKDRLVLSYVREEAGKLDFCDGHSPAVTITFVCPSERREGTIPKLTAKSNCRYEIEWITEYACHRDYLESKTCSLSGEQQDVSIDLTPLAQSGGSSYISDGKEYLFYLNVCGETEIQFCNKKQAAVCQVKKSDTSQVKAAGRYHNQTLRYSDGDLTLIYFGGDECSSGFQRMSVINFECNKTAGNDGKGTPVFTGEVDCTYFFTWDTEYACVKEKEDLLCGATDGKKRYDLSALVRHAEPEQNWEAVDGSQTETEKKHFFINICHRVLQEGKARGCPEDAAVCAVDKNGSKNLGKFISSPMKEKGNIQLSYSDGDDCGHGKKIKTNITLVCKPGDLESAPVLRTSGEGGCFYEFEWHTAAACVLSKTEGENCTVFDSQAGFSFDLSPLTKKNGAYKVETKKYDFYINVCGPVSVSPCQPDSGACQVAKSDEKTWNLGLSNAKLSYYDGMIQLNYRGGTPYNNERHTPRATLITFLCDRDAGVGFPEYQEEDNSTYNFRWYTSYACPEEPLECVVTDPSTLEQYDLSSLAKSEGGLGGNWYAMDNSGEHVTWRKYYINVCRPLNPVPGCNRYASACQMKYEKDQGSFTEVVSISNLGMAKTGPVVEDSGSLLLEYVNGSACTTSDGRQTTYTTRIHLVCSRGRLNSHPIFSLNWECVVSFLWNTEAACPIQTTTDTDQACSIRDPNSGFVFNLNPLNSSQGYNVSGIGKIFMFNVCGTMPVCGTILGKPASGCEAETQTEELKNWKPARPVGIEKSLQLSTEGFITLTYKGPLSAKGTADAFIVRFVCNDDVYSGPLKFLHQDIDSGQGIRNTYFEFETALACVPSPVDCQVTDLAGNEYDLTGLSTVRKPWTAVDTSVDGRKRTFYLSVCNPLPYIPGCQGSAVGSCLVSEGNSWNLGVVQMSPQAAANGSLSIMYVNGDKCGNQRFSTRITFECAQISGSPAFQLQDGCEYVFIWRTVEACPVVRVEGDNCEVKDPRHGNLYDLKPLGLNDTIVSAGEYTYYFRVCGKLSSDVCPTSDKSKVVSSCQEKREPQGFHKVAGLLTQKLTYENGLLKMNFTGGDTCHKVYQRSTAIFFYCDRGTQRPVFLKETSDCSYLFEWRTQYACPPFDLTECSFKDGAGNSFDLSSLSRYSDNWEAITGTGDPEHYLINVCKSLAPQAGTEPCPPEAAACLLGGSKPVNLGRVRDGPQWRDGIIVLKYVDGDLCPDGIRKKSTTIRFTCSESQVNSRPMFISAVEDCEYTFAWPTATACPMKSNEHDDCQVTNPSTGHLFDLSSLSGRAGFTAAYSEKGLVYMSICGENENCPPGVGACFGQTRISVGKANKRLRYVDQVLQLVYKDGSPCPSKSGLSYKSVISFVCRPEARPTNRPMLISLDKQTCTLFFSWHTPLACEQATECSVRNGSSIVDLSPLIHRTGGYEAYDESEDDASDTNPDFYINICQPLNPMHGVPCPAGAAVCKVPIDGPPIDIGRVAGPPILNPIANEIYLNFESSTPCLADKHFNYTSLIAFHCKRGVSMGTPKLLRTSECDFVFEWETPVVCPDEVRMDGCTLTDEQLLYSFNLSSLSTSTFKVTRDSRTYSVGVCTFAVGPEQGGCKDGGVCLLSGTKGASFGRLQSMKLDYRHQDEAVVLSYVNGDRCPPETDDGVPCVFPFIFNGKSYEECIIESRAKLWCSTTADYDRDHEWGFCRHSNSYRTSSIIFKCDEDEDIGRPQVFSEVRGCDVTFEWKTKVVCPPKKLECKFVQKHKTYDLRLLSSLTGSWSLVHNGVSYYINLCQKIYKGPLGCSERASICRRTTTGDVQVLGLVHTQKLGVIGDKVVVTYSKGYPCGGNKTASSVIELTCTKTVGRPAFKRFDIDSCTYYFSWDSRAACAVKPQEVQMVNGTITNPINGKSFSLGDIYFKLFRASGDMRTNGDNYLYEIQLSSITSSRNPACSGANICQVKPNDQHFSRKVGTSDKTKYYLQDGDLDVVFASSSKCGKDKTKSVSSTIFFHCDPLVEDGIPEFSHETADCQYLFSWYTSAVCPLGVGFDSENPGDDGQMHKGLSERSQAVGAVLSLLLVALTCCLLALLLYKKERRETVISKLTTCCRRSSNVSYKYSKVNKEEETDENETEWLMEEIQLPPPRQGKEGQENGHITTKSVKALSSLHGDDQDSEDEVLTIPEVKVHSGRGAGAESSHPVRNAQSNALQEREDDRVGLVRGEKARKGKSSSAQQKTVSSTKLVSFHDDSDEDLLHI
compound,measurement,setting,value
TT: recall antigen tetanus toxoid,% Increase of CD80 expression on monocytes,[1],2.0 ± 0.4%
same,% Increase of CD86 expression on monocytes,[2],1.2 ± 2%
same,% Increase of HLA-DR expression on monocytes,[3],0.3 ± 0.2%
z-LEHD-fmk,etoposide-mediated cleavage of pro-caspase-9,"[4]; 2 hours preincubation with z-LEHD-fmk at varying doses, then 3 μM etoposide 16 hours, FIG. 18",inhibited by z-LEHD-fink in dose-dependent manner
same,cleavage of pro-caspase-3 and PARP,"[4]; 2 hours preincubation with z-LEHD-fmk, then 3 μM etoposide 16 hours, FIG. 18",significantly reduced
same,etoposide-induced 32 kDa DR5 band,[4]; [14],no longer detectable
same,etoposide-induced increase in the 58 kDa DR5 band,[4]; [14],significantly attenuated
COc1cccc2c1C(=O)c1c(O)c3c(c(O)c1C2=O)C[C@@](O)(C(=O)CO)C[C@@H]3O[C@H]1C[C@H](N)[C@H](O)[C@H](C)O1 [Doxorubicin],Percentage G0G1,[5]; Doxorubicin 0.01 μM,25%
same,Percentage G2/M,[5]; Doxorubicin 0.01 μM,50%
same,Percentage S,[5]; Doxorubicin 0.01 μM,25%
same,Percentage G0G1,[5]; Doxorubicin 0.05 μM,11%
same,Percentage G2/M,[5]; Doxorubicin 0.05 μM,78%
same,Percentage S,[5]; Doxorubicin 0.05 μM,11%
same,"doxorubicin-mediated growth inhibition (MTT), sensitivity","[6]; S630A transfectants, 48 h, FIG. 1",less sensitive
same,"doxorubicin-mediated growth inhibition (MTT), sensitivity","[7]; wtCD26 compared with parental (control) or vector only (neo) Jurkat cells, 48 h, FIG. 1",markedly increased sensitivity
same,% G0/G1,[8]; [15],31%
same,% G2/M,[8]; [15],49%
same,% S,[8]; [15],20%
same,% G0/G1,[8]; [16],14%
same,% G2/M,[8]; [16],74%
same,% S,[8]; [16],12%
same,Percentage G0G1,[8]; Doxorubicin 0.01 μM,11%
same,Percentage G2/M,[8]; Doxorubicin 0.01 μM,62%
same,Percentage S,[8]; Doxorubicin 0.01 μM,27%
same,Percentage G0G1,[8]; Doxorubicin 0.05 μM,6%
same,Percentage G2/M,[8]; Doxorubicin 0.05 μM,69%
same,Percentage S,[8]; Doxorubicin 0.05 μM,25%
same,Percentage G0G1,[9]; [17],33%
same,Percentage G2/M,[9]; [17],35%
same,Percentage S,[9]; [17],32%
same,Percentage G0G1,[9]; [18],27%
same,Percentage G2/M,[9]; [18],38%
same,Percentage S,[9]; [18],35%
same,"doxorubicin-mediated growth inhibition (MTT), sensitivity",[10],greater doxorubicin sensitivity
same,% G0/G1,[11]; [15],43%
same,% G2/M,[11]; [15],27%
same,% S,[11]; [15],30%
same,% G0/G1,[11]; [16],36%
same,% G2/M,[11]; [16],41%
same,% S,[11]; [16],23%
same,Percentage G0G1,[11]; Doxorubicin 0.01 μM,40%
same,Percentage G2/M,[11]; Doxorubicin 0.01 μM,34%
same,Percentage S,[11]; Doxorubicin 0.01 μM,26%
same,Percentage G0G1,[11]; Doxorubicin 0.05 μM,32%
same,Percentage G2/M,[11]; Doxorubicin 0.05 μM,37%
same,Percentage S,[11]; Doxorubicin 0.05 μM,31%
same,doxorubicin-induced apoptosis (Annexin V/PI),"[12]; wtCD26 compared with parental or S630A Jurkat, 16 hours, FIG. 15B",greater apoptosis
same,doxorubicin-induced apoptosis (Annexin V/PI),"[13]; 340-4 compared with parental or S630A Jurkat, 16 hours, FIG. 15B",greater apoptosis
COc1cc([C@@H]2c3cc4c(cc3[C@@H](O[C@@H]3O[C@@H]5CO[C@@H](C)O[C@H]5[C@H](O)[C@H]3O)[C@H]3COC(=O)[C@H]23)OCO4)cc(OC)c1O [Etoposide],"etoposide-mediated growth inhibition (MTT), sensitivity","[6]; S630A compared to wtCD26 transfectants, FIG. 5",less sensitive
same,"etoposide-mediated growth inhibition (MTT), sensitivity","[7]; wtCD26 compared to parental cells, FIG. 5",significantly increased sensitivity
same,% G0/G1,[8]; [19],34%
same,% G2/M,[8]; [19],43%
same,% S,[8]; [19],23%
same,% G0/G1,[8]; [20],18%
same,% G2/M,[8]; [20],64%
same,% S,[8]; [20],18%
same,% G0/G1,[8]; Etoposide 0.10 uM,25%
same,% G2/M,[8]; Etoposide 0.10 uM,56%
same,% S,[8]; Etoposide 0.10 uM,19%
same,% G0/G1,[8]; Etoposide 0.25 uM,12%
same,% G2/M,[8]; Etoposide 0.25 uM,69%
same,% S,[8]; Etoposide 0.25 uM,19%
same,% G0/G1,[9]; [21],34%
same,% G2/M,[9]; [21],29%
same,% S,[9]; [21],37%
same,% G0/G1,[9]; [22],22%
same,% G2/M,[9]; [22],48%
same,% S,[9]; [22],30%
same,% G0/G1,[11]; [19],51%
same,% G2/M,[11]; [19],19%
same,% S,[11]; [19],30%
same,% G0/G1,[11]; [20],36%
same,% G2/M,[11]; [20],36%
same,% S,[11]; [20],28%
same,% G0/G1,[11]; Etoposide 0.10 uM,41%
same,% G2/M,[11]; Etoposide 0.10 uM,21%
same,% S,[11]; Etoposide 0.10 uM,38%
same,% G0/G1,[11]; Etoposide 0.25 uM,27%
same,% G2/M,[11]; Etoposide 0.25 uM,41%
same,% S,[11]; Etoposide 0.25 uM,32%
same,etoposide-induced apoptosis (Annexin V/PI),"[12]; wtCD26 vs S630A or parental control Jurkat, 14 hours, FIG. 15A",more sensitive to the apoptotic effect
same,etoposide-induced apoptosis (Annexin V/PI),"[13]; 340-4 transfectants, similar to wtCD26, 14 hours, FIG. 15A",higher level of drug-induced apoptosis
O=P(O)(O)OC[C@H]1OC(O)[C@@H](O)[C@@H](O)[C@@H]1O (some centres unmarked) [M6P],uptake of sCD26 into monocytes,M6P/IGF-IIR on monocytes,inhibited the uptake of sCD26 into monocytes
